For assay [1], the target named is T1, Mitogen-activated protein kinase 13 (Homo sapiens) (UniProt O15264).
T1 sequence (whole entry): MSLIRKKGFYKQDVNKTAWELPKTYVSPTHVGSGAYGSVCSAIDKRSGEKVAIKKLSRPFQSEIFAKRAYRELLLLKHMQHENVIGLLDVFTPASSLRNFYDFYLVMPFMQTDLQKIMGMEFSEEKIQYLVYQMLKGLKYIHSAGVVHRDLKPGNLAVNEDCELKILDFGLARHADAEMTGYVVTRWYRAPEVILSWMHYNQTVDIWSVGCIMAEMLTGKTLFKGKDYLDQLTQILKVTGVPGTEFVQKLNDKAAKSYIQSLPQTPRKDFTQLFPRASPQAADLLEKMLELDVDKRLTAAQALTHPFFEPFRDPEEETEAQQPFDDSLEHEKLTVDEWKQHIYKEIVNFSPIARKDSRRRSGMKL
Briefly: Selectivity interaction (Kinase panel (Z-LYTE Assay)) EUB0001632a MAPK13. The conditions noted are these: at 10 µM.

The target of assay [2] is Serine/threonine-protein kinase pim-2 (Homo sapiens, UniProt Q9P1W9). Briefly: Selectivity interaction (Kinase screening (Nanosyn)) EUB0000604a PIM2.
Assay [3] addresses T2, Mitogen-activated protein kinase kinase kinase 6 (Homo sapiens) (UniProt O95382).
T2 sequence (whole entry): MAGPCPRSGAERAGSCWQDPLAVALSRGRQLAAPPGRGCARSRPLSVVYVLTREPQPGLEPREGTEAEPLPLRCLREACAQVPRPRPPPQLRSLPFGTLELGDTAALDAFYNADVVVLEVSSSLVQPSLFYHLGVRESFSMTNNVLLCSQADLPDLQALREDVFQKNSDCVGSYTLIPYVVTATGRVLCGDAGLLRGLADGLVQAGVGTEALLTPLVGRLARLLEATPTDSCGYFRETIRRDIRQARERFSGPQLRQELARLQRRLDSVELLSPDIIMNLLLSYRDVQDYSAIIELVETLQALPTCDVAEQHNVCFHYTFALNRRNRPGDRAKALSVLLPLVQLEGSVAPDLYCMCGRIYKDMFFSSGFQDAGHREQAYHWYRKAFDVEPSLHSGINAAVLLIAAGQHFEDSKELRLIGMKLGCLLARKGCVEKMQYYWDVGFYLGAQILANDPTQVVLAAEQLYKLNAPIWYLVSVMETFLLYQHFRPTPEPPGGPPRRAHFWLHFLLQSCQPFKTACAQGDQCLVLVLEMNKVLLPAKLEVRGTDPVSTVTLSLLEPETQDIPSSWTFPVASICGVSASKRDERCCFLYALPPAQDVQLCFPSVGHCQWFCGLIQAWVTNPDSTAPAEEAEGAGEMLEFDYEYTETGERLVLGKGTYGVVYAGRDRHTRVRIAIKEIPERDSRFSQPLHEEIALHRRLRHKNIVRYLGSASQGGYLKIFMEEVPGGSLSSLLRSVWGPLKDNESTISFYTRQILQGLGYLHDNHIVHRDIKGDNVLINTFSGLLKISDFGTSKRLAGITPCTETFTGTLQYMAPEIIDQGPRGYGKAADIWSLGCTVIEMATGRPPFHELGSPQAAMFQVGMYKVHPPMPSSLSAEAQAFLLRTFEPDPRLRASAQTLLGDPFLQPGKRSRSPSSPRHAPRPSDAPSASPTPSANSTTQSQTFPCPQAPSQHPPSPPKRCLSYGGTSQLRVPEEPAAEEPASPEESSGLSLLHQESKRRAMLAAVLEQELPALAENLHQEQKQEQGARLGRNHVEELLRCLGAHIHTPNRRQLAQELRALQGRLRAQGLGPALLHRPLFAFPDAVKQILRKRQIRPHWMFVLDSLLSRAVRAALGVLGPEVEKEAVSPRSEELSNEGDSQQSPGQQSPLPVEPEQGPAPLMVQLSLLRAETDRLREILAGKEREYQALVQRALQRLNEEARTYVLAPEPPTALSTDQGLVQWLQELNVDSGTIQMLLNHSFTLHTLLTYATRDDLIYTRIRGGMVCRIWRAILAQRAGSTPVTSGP
Briefly: Selectivity interaction (ActivX KiNativ screen (kinase selectivity in THP-1 cell lysates)) EUB0000639a MAP3K6. The assay is classed as subcellular. The settings on record: lysate, at 0.01 µM.

Assay [4] has as its target Myosin light chain kinase 2, skeletal/cardiac muscle (Homo sapiens) (UniProt Q9H1R3). Briefly: Selectivity interaction (KinomeScan (DiscoverX)) EUB0000045b MYLK2.
The target in assay [5] is T3, TGF-beta receptor type-1 (Homo sapiens) (UniProt P36897).
T3 sequence (whole entry): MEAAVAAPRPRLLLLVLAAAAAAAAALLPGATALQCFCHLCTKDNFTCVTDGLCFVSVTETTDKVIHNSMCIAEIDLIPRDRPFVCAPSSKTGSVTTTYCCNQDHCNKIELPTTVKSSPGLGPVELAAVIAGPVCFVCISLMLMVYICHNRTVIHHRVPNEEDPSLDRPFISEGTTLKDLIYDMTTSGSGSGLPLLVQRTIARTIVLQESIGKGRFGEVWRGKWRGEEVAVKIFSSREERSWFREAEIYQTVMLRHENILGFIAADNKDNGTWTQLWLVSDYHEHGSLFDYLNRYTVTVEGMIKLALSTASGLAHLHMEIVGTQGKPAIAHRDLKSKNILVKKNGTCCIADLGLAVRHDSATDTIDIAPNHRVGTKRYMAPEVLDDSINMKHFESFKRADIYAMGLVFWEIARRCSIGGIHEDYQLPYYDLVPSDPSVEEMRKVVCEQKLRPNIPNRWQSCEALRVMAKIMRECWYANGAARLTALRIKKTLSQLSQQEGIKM
Briefly: Selectivity interaction (Ambit KINOMEscan and KiNATiv profiling in Jurkat cells) EUB0000090b TGFBR1. It counts as cell-based. The settings on record: at 1 µM.

The target of assay [6] is Protein kinase C delta type (Homo sapiens) (UniProt Q05655). Briefly: Selectivity interaction (KinomeScan (DiscoverX)) EUB0001049a PRKCD. The conditions noted are these: at 1 µM.
Assay [7] concerns the target T4, Serine/threonine-protein kinase Nek2 (Homo sapiens) (UniProt P51955).
T4 sequence (whole entry): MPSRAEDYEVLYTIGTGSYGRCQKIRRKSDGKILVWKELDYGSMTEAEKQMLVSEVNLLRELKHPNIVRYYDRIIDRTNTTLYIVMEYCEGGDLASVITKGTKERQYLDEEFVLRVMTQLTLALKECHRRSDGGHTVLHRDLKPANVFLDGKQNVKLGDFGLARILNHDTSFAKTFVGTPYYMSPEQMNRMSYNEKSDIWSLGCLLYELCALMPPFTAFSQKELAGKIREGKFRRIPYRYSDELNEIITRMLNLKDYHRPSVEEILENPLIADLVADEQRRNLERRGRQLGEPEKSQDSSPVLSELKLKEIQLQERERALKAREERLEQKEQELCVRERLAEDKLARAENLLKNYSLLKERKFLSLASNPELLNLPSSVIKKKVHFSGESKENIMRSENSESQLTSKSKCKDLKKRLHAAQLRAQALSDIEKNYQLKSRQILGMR
Briefly: Selectivity interaction (KinomeScan (DiscoverX)) EUB0000655a NEK2. The conditions noted are these: at 10 µM.

The record followed here is ChEMBL document CHEMBL5465560, “Selectivity Literature for EUbOPEN Chemogenomic Library” (2024).

SMILES strings stand for the structures.

Sequence of Myosin light chain kinase 2, skeletal/cardiac muscle (Homo sapiens) (Q9H1R3 whole entry): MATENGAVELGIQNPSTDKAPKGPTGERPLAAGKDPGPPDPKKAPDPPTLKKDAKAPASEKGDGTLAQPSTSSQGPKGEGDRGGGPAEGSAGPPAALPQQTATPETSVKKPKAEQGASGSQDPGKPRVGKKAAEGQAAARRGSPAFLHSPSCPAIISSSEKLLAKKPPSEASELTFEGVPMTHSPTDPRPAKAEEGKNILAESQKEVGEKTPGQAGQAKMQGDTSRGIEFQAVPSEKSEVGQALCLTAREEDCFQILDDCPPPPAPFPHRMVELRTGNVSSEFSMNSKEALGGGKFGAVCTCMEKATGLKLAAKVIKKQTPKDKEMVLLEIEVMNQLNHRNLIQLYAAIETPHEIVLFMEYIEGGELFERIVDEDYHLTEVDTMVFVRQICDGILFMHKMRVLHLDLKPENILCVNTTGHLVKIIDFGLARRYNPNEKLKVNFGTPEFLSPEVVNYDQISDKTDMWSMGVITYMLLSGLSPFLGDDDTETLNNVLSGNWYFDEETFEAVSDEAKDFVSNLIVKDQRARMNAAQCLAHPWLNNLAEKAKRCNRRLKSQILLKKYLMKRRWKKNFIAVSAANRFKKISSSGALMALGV
Sequence of Serine/threonine-protein kinase pim-2 (Q9P1W9 whole entry, looked up): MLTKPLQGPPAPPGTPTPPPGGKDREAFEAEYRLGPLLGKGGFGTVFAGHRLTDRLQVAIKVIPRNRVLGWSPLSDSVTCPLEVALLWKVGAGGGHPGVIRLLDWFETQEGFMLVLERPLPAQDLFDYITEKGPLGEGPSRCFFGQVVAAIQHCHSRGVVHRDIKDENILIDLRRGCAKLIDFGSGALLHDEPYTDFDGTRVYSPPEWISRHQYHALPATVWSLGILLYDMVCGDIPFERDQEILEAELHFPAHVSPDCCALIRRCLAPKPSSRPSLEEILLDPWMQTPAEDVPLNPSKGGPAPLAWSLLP
Sequence of Protein kinase C delta type (Homo sapiens) (Q05655 whole entry, looked up): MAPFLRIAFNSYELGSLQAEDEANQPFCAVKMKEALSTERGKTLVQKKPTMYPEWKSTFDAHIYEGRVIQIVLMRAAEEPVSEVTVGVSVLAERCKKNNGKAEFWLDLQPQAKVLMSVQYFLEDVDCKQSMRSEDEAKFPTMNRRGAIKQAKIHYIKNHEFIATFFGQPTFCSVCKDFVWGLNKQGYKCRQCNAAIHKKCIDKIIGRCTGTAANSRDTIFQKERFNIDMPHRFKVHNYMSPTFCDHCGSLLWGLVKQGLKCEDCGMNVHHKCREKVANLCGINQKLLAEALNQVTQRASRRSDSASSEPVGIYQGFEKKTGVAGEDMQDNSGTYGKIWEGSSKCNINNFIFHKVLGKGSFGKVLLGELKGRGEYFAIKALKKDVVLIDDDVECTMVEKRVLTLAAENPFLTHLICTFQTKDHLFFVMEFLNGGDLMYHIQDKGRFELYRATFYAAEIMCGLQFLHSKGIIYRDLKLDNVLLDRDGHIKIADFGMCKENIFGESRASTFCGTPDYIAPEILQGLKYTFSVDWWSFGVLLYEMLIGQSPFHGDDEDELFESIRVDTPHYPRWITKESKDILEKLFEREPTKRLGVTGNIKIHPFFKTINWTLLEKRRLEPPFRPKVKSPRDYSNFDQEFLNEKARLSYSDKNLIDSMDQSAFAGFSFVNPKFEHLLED

For the compound `Cn1cc(-n2cnc3c(NCc4nc5cc(Cl)c(Cl)cc5[nH]4)nc(N4CCOCC4)nc32)cn1`, the % of control in assay [1] turned out to be 3.12%.
Consider `Cc1cnc(Nc2ccc(F)cc2Cl)nc1-c1c[nH]c(C(=O)N[C@H](CO)c2cccc(Cl)c2)c1`, for which, in assay [2], the % of inhibition is 3%.
In assay [3], `CC[C@@H]1[C@H](F)C(=O)N[C@@H]1COc1nccc2cc(C(N)=O)c(OC)cc12` [ZIMLOVISERTIB] gave a % of inhibition of 3.1%.
Regarding `C=CC(=O)Nc1cc(-n2c(=O)ccc3cnc4ccc(-c5ccc(NS(C)(=O)=O)cc5)cc4c32)ccc1C`, the % of control in assay [4] (at 1 µM) stood at 93%; in assay [4] (at 10 µM), 100%.
Consider `CN(C)C/C=C/C(=O)Nc1ccc(C(=O)N2CCCC(Nc3ncc(Cl)c(-c4c[nH]c5ccccc45)n3)C2)cc1` (stereo not drawn), for which, in assay [5], the % of control turned out to be 87%.
`COc1cc(Nc2nc(C)cc(-c3cnn4nc(OC)ccc34)n2)cc(C(F)(F)F)c1`: the % of control in assay [6] came out at 97%.
With `CN(C)CCOc1ccc(-c2nc(-c3ccncc3)c(-c3ccc4c(c3)CC/C4=N\O)[nH]2)cc1`, in assay [7], the % of control was found to be 100%.
